Laboratory results taken from patent publication US20190112580A1, “METHODS FOR TREATING CO[…] AND RELATED CULTURED CELLS” (priority 2017, published 2019).

System: CP myoblast cultures
Experiment: Real-time qPCR gene expression profiling in fusing CP myoblasts
Format: cell-based, human
Parameters: key to JAG2 Expression / ATP2A1 Expression / DLL1 Expression / MYF5 Expression / ATP2A2 Expression / JAG1 Expression / SIX1 Expression / MYH7 Expression / CDKN1A Expression / NRG1 Expression / DLK1 Expression: relative expression vs non-treated; ≥2 up, ≤0.5 down
Description: To investigate whether additional signaling pathways and genes were affected by 5-AZA treatment, real-time qPCR was used to analyze the expression of 91 genes involved in myogenesis, neurogenesis and adipogenesis in fusing CP myoblasts after 24 hours of pretreatment with 5 μM of 5-AZA (Supp. Table 2A). […] Also, 5-AZA pretreatment led to upregulation of transcription regulators involved in myogenesis and other signaling pathways (BMI1, SIX1, SIX4, EGR3, FOXO1, MAPK14, MEF2A, MEF2C, MYF5, MYOG, NEUROD2, NOTCH2, PAX3, PAX7, PPARA, PPARD, PPARG, RPBJ, RARA). […] Impairment in other signaling pathways involved in myoblast fusion and myotube formation (e.g., TMEM8C/Myomaker, Rho GTPases, MAPKs, Calcineurin-NFATc2, NF-KB, WNT, MMPs) may also contribute to the decrease in myogenic potential of CP myoblasts.
Myoblasts, treated or non-treated with 5 μM 5-AZA for 24 hours, were cultured in high serum medium until they reached 80-90% confluence. After switch to low-serum medium, myoblast preparations were allowed to differentiate for 24-72 hours before RNA extraction. Total RNA was isolated and purified from myoblast cell culture preparations using Trizol reagent (Ambion—Life Technologies) according to manufacturer's recommendations. First-strand cDNA synthesis from purified RNAs and qPCR amplification was performed using the GoTaq 2-Step RT-qPCR System kit (Promega) according to manufacturer's protocols. Resulting cDNAs were subjected to SYBR Green-based real-time amplification using a C1000 Thermal Cycler apparatus (Bio-Rad). Each PCR amplification reaction (20 μl volume) contained 100 ng of starting cDNA template and primers amplifying a specific gene. Gene expression profiling during myoblast differentiation was investigated using predesigned 96-well gene panels for use with SYBR Green (SABioscience) (Tables 1A and 2A).
The predesigned 96-well gene panels utilized expertly designed and experimentally validated PCR primers and assays and included 3 reference genes for relative gene expression normalization and quantification: HPRT1, TBP and AP3DI. These reference genes were specifically validated for our experimental treatment and conditions and were selected among 15 experimentally tested candidates and analyzed using the software packages Bestkeeper, geNorm and Normfinder. Cycling conditions for SYBR Green primers consisted of an initial step at 50° C. (2 minutes) and a first denaturizing step at 95° C. (2 minutes), followed by 50 cycles of a thermal step protocol consisting of 95° C. (20 seconds), 60° C. (20 seconds) and 72° C. (20 seconds). A standard melt curve profiling consisting of a 65-95° C. thermal ramp was performed at the end of each protocol. Gene expression quantification was performed using Bio-Rad CFX Manager software. Positively and negatively regulated genes were selected following a P<0.05 and a 2 or 0.5 expression level respectively. Functional gene classification was performed using The Database for Annotation, Visualization and Integrated Discovery (DAVID) v6.8 (at <https://david.ncifcrf.gov/>).

[1] = 5 μM 24 hours pretreatment vs non-treated CP, 48-72 hours of differentiation
[2] = gene ACTA1, 5 μM 24 h pretreatment vs non-treated CP
[3] = gene ACTG1, 5 μM 24 h pretreatment vs non-treated CP
[4] = gene ACTN2, 5 μM 24 h pretreatment vs non-treated CP
[5] = gene ATP2A1, 5 μM 24 h pretreatment vs non-treated CP
[6] = gene ATP2A2, 5 μM 24 h pretreatment vs non-treated CP
[7] = gene BCL2, 5 μM 24 h pretreatment vs non-treated CP
[8] = gene BMI1, 5 μM 24 h pretreatment vs non-treated CP
[9] = gene CAV3, 5 μM 24 h pretreatment vs non-treated CP
[10] = gene CDKN1A, 5 μM 24 h pretreatment vs non-treated CP
[11] = gene DES, 5 μM 24 h pretreatment vs non-treated CP
[12] = gene DLK1, 5 μM 24 h pretreatment vs non-treated CP
[13] = gene DLL1, 5 μM 24 h pretreatment vs non-treated CP
[14] = gene EGR3, 5 μM 24 h pretreatment vs non-treated CP
[15] = gene FHL2, 5 μM 24 h pretreatment vs non-treated CP
[16] = gene FOXO1, 5 μM 24 h pretreatment vs non-treated CP
[17] = gene ITGA7, 5 μM 24 h pretreatment vs non-treated CP
[18] = gene ITGB1, 5 μM 24 h pretreatment vs non-treated CP
[19] = gene JAG1, 5 μM 24 h pretreatment vs non-treated CP
[20] = gene JAG2, 5 μM 24 h pretreatment vs non-treated CP
[21] = gene LRP4, 5 μM 24 h pretreatment vs non-treated CP
[22] = gene MAPK14, 5 μM 24 h pretreatment vs non-treated CP
[23] = gene MEF2A, 5 μM 24 h pretreatment vs non-treated CP
[24] = gene MEF2C, 5 μM 24 h pretreatment vs non-treated CP
[25] = gene MET, 5 μM 24 h pretreatment vs non-treated CP
[26] = gene MYF5, 5 μM 24 h pretreatment vs non-treated CP
[27] = gene MYF6, 5 μM 24 h pretreatment vs non-treated CP
[28] = gene MYH2, 5 μM 24 h pretreatment vs non-treated CP
[29] = gene MYH3, 5 μM 24 h pretreatment vs non-treated CP
[30] = gene MYH7, 5 μM 24 h pretreatment vs non-treated CP
[31] = gene MYH8, 5 μM 24 h pretreatment vs non-treated CP
[32] = gene MYH9, 5 μM 24 h pretreatment vs non-treated CP
[33] = gene MYOG, 5 μM 24 h pretreatment vs non-treated CP
[34] = gene NCAM1, 5 μM 24 h pretreatment vs non-treated CP
[35] = gene NEUROD2, 5 μM 24 h pretreatment vs non-treated CP
[36] = gene NOTCH2, 5 μM 24 h pretreatment vs non-treated CP
[37] = gene NRG1, 5 μM 24 h pretreatment vs non-treated CP
[38] = gene PAK1, 5 μM 24 h pretreatment vs non-treated CP
[39] = gene PAX3, 5 μM 24 h pretreatment vs non-treated CP
[40] = gene PAX7, 5 μM 24 h pretreatment vs non-treated CP
[41] = gene PDGFRA, 5 μM 24 h pretreatment vs non-treated CP
[42] = gene PDGFRB, 5 μM 24 h pretreatment vs non-treated CP
[43] = gene PPARA, 5 μM 24 h pretreatment vs non-treated CP
[44] = gene PPARD, 5 μM 24 h pretreatment vs non-treated CP
[45] = gene PPARG, 5 μM 24 h pretreatment vs non-treated CP
[46] = gene RARA, 5 μM 24 h pretreatment vs non-treated CP
[47] = gene RBPJ, 5 μM 24 h pretreatment vs non-treated CP
[48] = gene SHH, 5 μM 24 h pretreatment vs non-treated CP
[49] = gene SIX1, 5 μM 24 h pretreatment vs non-treated CP
[50] = gene SIX4, 5 μM 24 h pretreatment vs non-treated CP
[51] = gene TMEM8C, 5 μM 24 h pretreatment vs non-treated CP

## Nc1ncn([C@@H]2O[C@H](CO)[C@@H](O)[C@H]2O)c(=O)n1 [5-AZA, 5-azacytidine]
[1]
  genes significantly downregulated (of 91 genes): 7 genes
  genes significantly upregulated (of 91 genes): 43 genes
[2]
  ACTA1 Expression: 5.23
  ACTA1 Regulation: 5.2
[3]
  ACTG1 Expression: 0.09
  ACTG1 Regulation: −10.7
[4]
  ACTN2 Expression: 5.96
  ACTN2 Regulation: 6.0
[5]
  ATP2A1 Expression: 7.87
  ATP2A1 Regulation: 7.9
[6]
  ATP2A2 Expression: 3.26
  ATP2A2 Regulation: 3.3
[7]
  BCL2 Expression: 5.33
  BCL2 Regulation: 5.3
[8]
  BMI1 Expression: 2.97
  BMI1 Regulation: 3.0
[9]
  CAV3 Expression: 2.92
  CAV3 Regulation: 2.9
[10]
  CDKN1A Expression: 0.23
  CDKN1A Regulation: −4.4
[11]
  DES Expression: 6.23
  DES Regulation: 6.2
[12]
  DLK1 Expression: 16.51
  DLK1 Regulation: 16.5
[13]
  DLL1 Expression: 7.05
  DLL1 Regulation: 7.0
[14]
  EGR3 Expression: 14.93
  EGR3 Regulation: 14.9
[15]
  FHL2 Expression: 0.45
  FHL2 Regulation: −2.2
[16]
  FOXO1 Expression: 7.30
  FOXO1 Regulation: 7.3
[17]
  ITGA7 Expression: 4.22
  ITGA7 Regulation: 4.2
[18]
  ITGB1 Expression: 2.11
  ITGB1 Regulation: 2.1
[19]
  JAG1 Expression: 2.61
  JAG1 Regulation: 2.6
[20]
  JAG2 Expression: 10.19
  JAG2 Regulation: 10.2
[21]
  LRP4 Expression: 3.01
  LRP4 Regulation: 3.0
[22]
  MAPK14 Expression: 2.84
  MAPK14 Regulation: 2.8
[23]
  MEF2A Expression: 10.08
  MEF2A Regulation: 10.1
[24]
  MEF2C Expression: 5.79
  MEF2C Regulation: 5.8
[25]
  MET Expression: 2.07
  MET Regulation: 2.1
[26]
  MYF5 Expression: 6.99
  MYF5 Regulation: 7.0
[27]
  MYF6 Expression: 3.77
  MYF6 Regulation: 3.8
[28]
  MYH2 Expression: 6.99
  MYH2 Regulation: 7.0
[29]
  MYH3 Expression: 6.74
  MYH3 Regulation: 6.7
[30]
  MYH7 Expression: 2.15
  MYH7 Regulation: 2.1
[31]
  MYH8 Expression: 2.51
  MYH8 Regulation: 2.5
[32]
  MYH9 Expression: 0.17
  MYH9 Regulation: −5.8
[33]
  MYOG Expression: 7.72
  MYOG Regulation: 7.7
[34]
  NCAM1 Expression: 6.55
  NCAM1 Regulation: 6.6
[35]
  NEUROD2 Expression: 56.33
  NEUROD2 Regulation: 56.3
[36]
  NOTCH2 Expression: 3.12
  NOTCH2 Regulation: 3.1
[37]
  NRG1 Expression: 0.47
  NRG1 Regulation: −2.1
[38]
  PAK1 Expression: 4.49
  PAK1 Regulation: 4.5
[39]
  PAX3 Expression: 12.50
  PAX3 Regulation: 12.5
[40]
  PAX7 Expression: 2.88
  PAX7 Regulation: 2.9
[41]
  PDGFRA Expression: 0.38
  PDGFRA Regulation: −2.6
[42]
  PDGFRB Expression: 0.34
  PDGFRB Regulation: −2.9
[43]
  PPARA Expression: 2.69
  PPARA Regulation: 2.7
[44]
  PPARD Expression: 3.55
  PPARD Regulation: 3.6
[45]
  PPARG Expression: 24.42
  PPARG Regulation: 24.4
[46]
  RARA Expression: 2.19
  RARA Regulation: 2.2
[47]
  RBPJ Expression: 3.84
  RBPJ Regulation: 3.8
[48]
  SHH Expression: 23.75
  SHH Regulation: 23.8
[49]
  SIX1 Expression: 2.21
  SIX1 Regulation: 2.2
[50]
  SIX4 Expression: 3.20
  SIX4 Regulation: 3.2
[51]
  TMEM8C Expression: 3.59
  TMEM8C Regulation: 3.6
